Data published in patent US12139508B2, “Steroid derivative regulators, method for preparing the same, and uses thereof” (JIANGSU HANSOH PHARMACEUTICAL GROUP CO., LTD., priority 2018, dated 2024).

What follows are compounds tested against GABA-A receptor (assay: 35S-TBPS binding assay (GABAA receptor binding ability test)). Conditions: rat cerebral cortex cell membrane, 5 μM GABA, 2 nM 35S-TBPS; read-out: 35S-TBPS bindng test: IC50 on inhibiting the TBPS binding activity.
Design: species or system Sprague-Dawley rat
Summary of the method: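 Rat (male Sprague-Dawley) cortical membranes in PBS were preincubated 5 min at 25° C with compound (from 1 μM, 3-fold, 8 points, 1% DMSO), then 5 μM GABA 5 min, then 2 nM ^35S-TBPS for 20 h at 4° C. Filter-bound counts gave % inhibition against DMSO and 10 μM P026-2 controls; IC50 by 4-parameter fit.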
`CC[C@@H]1C[C@H](C(=O)Cn2ncnn2)[C@@]2(C)CC[C@H]3[C@@H](CC[C@@H]4C[C@](C)(O)CC[C@@H]43)[C@H]12` [Example 149, 1-((3R,5R,8R,9R,10S,13S,14S,15R,17S)-15-Ethyl-3-hydroxy-3,13-dimethylhexadecahydro-1H-cyclopenta[a]phenanthren-17-yl)-2-(2H-tetrazol-2-yl)ethan-1-one] was tested, and the IC50 was 25.6 nM. Compound `C[C@@H]1C[C@H](C(=O)COc2cnc(C(F)(F)F)nc2)[C@@]2(C)CC[C@H]3[C@@H](CC[C@@H]4C[C@](C)(O)CC[C@@H]43)[C@H]12` [Example 150, 1-((3R,5R,8R,9R,10S,13S,14S,15R,17S)-3-Hydroxy-3,13,15-trimethylhexadecahydro-1H-cyclopenta[a]phenanthren-17-yl)-2-((2-(trifluoromethyl)pyrimidin-5-yl)oxy)ethan-1-one] has an IC50 of 8.8 nM. Compound `C[C@@]1(O)CC[C@H]2[C@H](CC[C@@H]3[C@@H]2CC[C@@]2(C)[C@H]3[C@H](C3CC3)C[C@@H]2C(=O)COc2cnc(C(F)(F)F)nc2)C1` [Example 151, 1-((3R,5R,8R,9R,10S,13S,14S,15S,17S)-15-Cyclopropyl-3-hydroxy-3,13-dimethylhexadecahydro-1H-cyclopenta[a]phenanthren-17-yl)-2-((2-(trifluoromethyl)pyrimidin-5-yl)oxy)ethan-1-one] has an IC50 of 26.2 nM. With `C[C@@]1(O)CC[C@H]2[C@H](CC[C@@H]3[C@@H]2CC[C@]2(C)[C@@H](C(=O)COCC4(C#N)CC4)CC[C@@H]32)C1` [Example 166, 1-((2-((3R,5R,8R,9R,10S,13S,14S,17S)-3-Hydroxy-3,13-dimethylhexadecahydro-1H-cyclopenta[a]phenanthren-17-yl)-2-oxoethoxy)methyl)cyclopropane-1-carbonitrile] the IC50 was 38.4 nM.
